Assay results taken from paper PMC5218480 (PLoS ONE, 2017).

System: MV-4-11 cells
Assay: Gene expression microarray analysis (Affymetrix PrimeView) and GSEA
Format: cell-based, human
Set-up: RFU PODN (11730768_x_at) / Fold change /veh PODN (11730768_x_at) / RFU LINC00158 (11744669_a_at) / Fold change /veh LINC00158 (11744669_a_at) / RFU DUSP10 (11751237_a_at) / Fold change /veh DUSP10 (11751237_a_at) / RFU ID3 (11757404_x_at) / Fold change /veh ID3 (11757404_x_at) / RFU PLEKHG5 (11737974_s_at) / Fold change /veh PLEKHG5 (11737974_s_at) / RFU LRRC4B (11730491_at) / Fold change /veh LRRC4B (11730491_at) / RFU GIMAP4 (11747438_a_at) / Fold change /veh GIMAP4 (11747438_a_at) / RFU KRT8 (11758183_x_at) / Fold change /veh KRT8 (11758183_x_at) / RFU CNN1 (11734310_a_at) / Fold change /veh CNN1 (11734310_a_at) / RFU VPS37D (11726825_at) / Fold change /veh VPS37D (11726825_at) / RFU C10orf10 (11716522_x_at) / Fold change /veh C10orf10 (11716522_x_at) / RFU KIR2DL2 /// KIR2DL4 /// KIR2DL5A /// KIR2DL5B /// KIR2DS1 /// KIR2DS2 /// KIR2DS3 /// KIR2DS4 /// KIR3DL3 /// KIR3DL3 /// KIR3DS1 (11738374_at) / Fold change /veh KIR2DL2 /// KIR2DL4 /// KIR2DL5A /// KIR2DL5B /// KIR2DS1 /// KIR2DS2 /// KIR2DS3 /// KIR2DS4 /// KIR3DL3 /// KIR3DL3 /// KIR3DS1 (11738374_at) / RFU C1QL1 (11718748_at) / Fold change /veh C1QL1 (11718748_at) / RFU TMPRSS4 (11747572_a_at) / Fold change /veh TMPRSS4 (11747572_a_at) / RFU HAMP (11756126_x_at) / Fold change /veh HAMP (11756126_x_at) / RFU RNFT2 (11725882_a_at) / Fold change /veh RNFT2 (11725882_a_at) / RFU NR4A2 (11747474_a_at) / Fold change /veh NR4A2 (11747474_a_at) / RFU ABCC12 (11746883_a_at) / Fold change /veh ABCC12 (11746883_a_at) / RFU TMEM136 (11760407_x_at) / Fold change /veh TMEM136 (11760407_x_at) / RFU CLDN22 /// WWC2 (11732394_at) / Fold change /veh CLDN22 /// WWC2 (11732394_at) / RFU HLA-DPB1 (11760878_x_at) / Fold change /veh HLA-DPB1 (11760878_x_at) / RFU SPINT1 (11716480_a_at) / Fold change /veh SPINT1 (11716480_a_at) / RFU GAP43 (11754022_s_at) / Fold change /veh GAP43 (11754022_s_at) / RFU A4GNT (11735810_at) / Fold change /veh A4GNT (11735810_at) / RFU PRB3 (11715151_x_at) / Fold change /veh PRB3 (11715151_x_at) / RFU TUBB4B (11761932_at) / Fold change /veh TUBB4B (11761932_at) / RFU CAPN14 (11732068_a_at) / Fold change /veh CAPN14 (11732068_a_at) / RFU TMCC2 (11721928_a_at) / Fold change /veh TMCC2 (11721928_a_at) / RFU IRGQ (11745062_a_at) / Fold change /veh IRGQ (11745062_a_at) / RFU FAM174B (11720279_a_at) / Fold change /veh FAM174B (11720279_a_at) / RFU TMPRSS4 (11748680_a_at) / Fold change /veh TMPRSS4 (11748680_a_at) / RFU FAM212B (11763350_a_at) / Fold change /veh FAM212B (11763350_a_at) / RFU PLEKHG5 (11743358_a_at) / Fold change /veh PLEKHG5 (11743358_a_at) / RFU ZSCAN30 (11745921_a_at) / Fold change /veh ZSCAN30 (11745921_a_at) / RFU CMKLR1 (11741424_a_at) / Fold change /veh CMKLR1 (11741424_a_at) / RFU LOC101060620 /// MAPK8IP1 (11723275_at) / Fold change /veh LOC101060620 /// MAPK8IP1 (11723275_at) / RFU SPTSSB (11747773_x_at) / Fold change /veh SPTSSB (11747773_x_at) / RFU PRSS12 (11739890_at) / Fold change /veh PRSS12 (11739890_at) / RFU BIN1 (11741810_x_at) / Fold change /veh BIN1 (11741810_x_at) / RFU WNT11 (11732464_a_at) / Fold change /veh WNT11 (11732464_a_at) / RFU C10orf10 (11716521_a_at) / Fold change /veh C10orf10 (11716521_a_at) / RFU C5orf56 (11738089_at) / Fold change /veh C5orf56 (11738089_at) / RFU CYB561 (11721691_x_at) / Fold change /veh CYB561 (11721691_x_at) / RFU ANKRD19P (11752326_a_at) / Fold change /veh ANKRD19P (11752326_a_at) / RFU OR2T12 /// OR2T33 /// OR2T8 (11738714_s_at) / Fold change /veh OR2T12 /// OR2T33 /// OR2T8 (11738714_s_at) / RFU VCAN (11748164_a_at) / Fold change /veh VCAN (11748164_a_at) / RFU JSRP1 (11732532_at) / Fold change /veh JSRP1 (11732532_at) / RFU KRTAP10-11 (11738290_x_at) / Fold change /veh KRTAP10-11 (11738290_x_at) / RFU MYO3A (11730013_a_at) / Fold change /veh MYO3A (11730013_a_at) / RFU EBF3 (11725865_a_at) / Fold change /veh EBF3 (11725865_a_at) / RFU CAMK2N1 (11719241_x_at) / Fold change /veh CAMK2N1 (11719241_x_at) / RFU C5orf56 (11738088_a_at) / Fold change /veh C5orf56 (11738088_a_at) / RFU OLFML3 (11715873_a_at) / Fold change /veh OLFML3 (11715873_a_at) / RFU LOC100653217 /// NTM (11731650_a_at) / Fold change /veh LOC100653217 /// NTM (11731650_a_at) / RFU MAPK11 (11762145_a_at) / Fold change /veh MAPK11 (11762145_a_at) / RFU FIZ1 (11724087_x_at) / Fold change /veh FIZ1 (11724087_x_at) / RFU OASL (11726364_x_at) / Fold change /veh OASL (11726364_x_at) / RFU SOX15 (11748057_x_at) / Fold change /veh SOX15 (11748057_x_at) / RFU CD79A (11719716_a_at) / Fold change /veh CD79A (11719716_a_at) / RFU HIST1H1D (11736915_at) / Fold change /veh HIST1H1D (11736915_at) / RFU CASKIN2 (11723855_a_at) / Fold change /veh CASKIN2 (11723855_a_at) / RFU LOC730098 (11760151_x_at) / Fold change /veh LOC730098 (11760151_x_at) / RFU OR4N2 (11742367_at) / Fold change /veh OR4N2 (11742367_at) / RFU PRRT2 (11749266_a_at) / Fold change /veh PRRT2 (11749266_a_at) / RFU SNX32 (11753110_a_at) / Fold change /veh SNX32 (11753110_a_at) / RFU CDHR5 (11726645_a_at) / Fold change /veh CDHR5 (11726645_a_at) / RFU RCAN1 (11760418_a_at) / Fold change /veh RCAN1 (11760418_a_at) / RFU FAM167A (11723789_a_at) / Fold change /veh FAM167A (11723789_a_at) / RFU FAM26E (11764081_at) / Fold change /veh FAM26E (11764081_at) / RFU ISYNA1 (11749810_s_at) / Fold change /veh ISYNA1 (11749810_s_at) / RFU ACY1 (11761880_at) / Fold change /veh ACY1 (11761880_at) / RFU 11764098_at / Fold change /veh 11764098_at / RFU SAMD14 (11745864_x_at) / Fold change /veh SAMD14 (11745864_x_at) / RFU NPB (11741838_a_at) / Fold change /veh NPB (11741838_a_at) / RFU TMPRSS6 (11731388_a_at) / Fold change /veh TMPRSS6 (11731388_a_at) / RFU KRTAP10-2 (11738614_at) / Fold change /veh KRTAP10-2 (11738614_at) / RFU ARHGAP8 /// PRR5-ARHGAP8 (11727945_x_at) / Fold change /veh ARHGAP8 /// PRR5-ARHGAP8 (11727945_x_at) / RFU KRTAP5-7 /// NADSYN1 (11734609_at) / Fold change /veh KRTAP5-7 /// NADSYN1 (11734609_at) / RFU RASL12 (11751679_a_at) / Fold change /veh RASL12 (11751679_a_at) / RFU CDKN2B (11736163_a_at) / Fold change /veh CDKN2B (11736163_a_at) / RFU PRF1 (11729649_at) / Fold change /veh PRF1 (11729649_at) / RFU, ZNF638 /// ZNF638-IT1 / Fold change vs veh, ZNF638 /// ZNF638-IT1 / RFU, PANK3 / Fold change vs veh, PANK3 / RFU, SH3YL1 / Fold change vs veh, SH3YL1 / RFU, ZEB2 / Fold change vs veh, ZEB2 / RFU, NRIP1 / Fold change vs veh, NRIP1 / RFU, PTTG1IP / Fold change vs veh, PTTG1IP / RFU, CAPN2 / Fold change vs veh, CAPN2 / RFU, MED14 / Fold change vs veh, MED14 / RFU, SNORA58 / Fold change vs veh, SNORA58 / RFU, C1orf63 / Fold change vs veh, C1orf63 / RFU, LRRFIP1 / Fold change vs veh, LRRFIP1 / RFU, NDUFAF7 / Fold change vs veh, NDUFAF7 / RFU, SLC12A2 / Fold change vs veh, SLC12A2 / RFU, IBTK / Fold change vs veh, IBTK / RFU, ESF1 / Fold change vs veh, ESF1 / Fold change vs veh, TMEM50B / RFU, TAOK1 / Fold change vs veh, TAOK1 / RFU, ACBD3 / Fold change vs veh, ACBD3 / RFU, TMA16 / Fold change vs veh, TMA16 / RFU, RWDD3 / Fold change vs veh, RWDD3 / RFU, BCAT1 / Fold change vs veh, BCAT1 / RFU, EDEM3 / Fold change vs veh, EDEM3 / RFU, TMEM33 / Fold change vs veh, TMEM33 / RFU, WDR75 / Fold change vs veh, WDR75 / RFU, AHCTF1 / Fold change vs veh, AHCTF1 / RFU, TFRC / Fold change vs veh, TFRC / RFU, ZDHHC17 / Fold change vs veh, ZDHHC17 / RFU, NOM1 / Fold change vs veh, NOM1 / RFU, ARL8B / Fold change vs veh, ARL8B / RFU, ZBTB11 / Fold change vs veh, ZBTB11 / RFU, TAMM41 / Fold change vs veh, TAMM41 / RFU, KIAA1704 /// LOC100996395 / Fold change vs veh, KIAA1704 /// LOC100996395 / RFU, ING1 / Fold change vs veh, ING1 / RFU, TRMT61B / Fold change vs veh, TRMT61B / RFU, FUBP3 / Fold change vs veh, FUBP3 / RFU, TP53 / Fold change vs veh, TP53 / RFU, TNKS2 / Fold change vs veh, TNKS2 / RFU, ZFP14 / Fold change vs veh, ZFP14 / RFU, ACTR2 / Fold change vs veh, ACTR2 / RFU, PPP3R1 / Fold change vs veh, PPP3R1 / RFU, PIK3R1 / Fold change vs veh, PIK3R1 / RFU, HNRNPA1 / Fold change vs veh, HNRNPA1 / RFU, RNF170 / Fold change vs veh, RNF170 / RFU, ZNF28 / Fold change vs veh, ZNF28 / RFU, RNGTT / Fold change vs veh, RNGTT / RFU, OGT / Fold change vs veh, OGT / RFU, BRD1 / Fold change vs veh, BRD1 / RFU, MARS / Fold change vs veh, MARS / RFU, ZNF655 / Fold change vs veh, ZNF655 / RFU, FAHD1 / Fold change vs veh, FAHD1 / RFU, BDP1 / Fold change vs veh, BDP1 / RFU, LRRCC1 / Fold change vs veh, LRRCC1 / RFU, ARID1A / Fold change vs veh, ARID1A / RFU, ZNF146 / Fold change vs veh, ZNF146 / RFU, ZNF330 / Fold change vs veh, ZNF330 / RFU, GPN3 / Fold change vs veh, GPN3 / RFU, C9orf123 / Fold change vs veh, C9orf123 / RFU, N4BP2L2 / Fold change vs veh, N4BP2L2 / RFU, ARFIP1 / Fold change vs veh, ARFIP1 / RFU, FAM179B / Fold change vs veh, FAM179B / RFU, BCL10 / Fold change vs veh, BCL10 / RFU, UHRF1BP1L / Fold change vs veh, UHRF1BP1L / RFU, BET1 / Fold change vs veh, BET1 / RFU, CNOT2 / Fold change vs veh, CNOT2 / RFU, ZNF268 / Fold change vs veh, ZNF268 / Fold change vs veh, ZNF507 / RFU, DGCR2 / Fold change vs veh, DGCR2 / RFU, WDSUB1 / Fold change vs veh, WDSUB1 / Fold change vs veh, HSP90B1 /// MIR3652 / RFU, ADSS / Fold change vs veh, ADSS / RFU, GK / Fold change vs veh, GK / RFU, ZNF148 / Fold change vs veh, ZNF148 / RFU, TAF9 / Fold change vs veh, TAF9 / RFU, SLC1A5 / Fold change vs veh, SLC1A5 / RFU, SLMO2 / Fold change vs veh, SLMO2 / RFU, ABCC4 / Fold change vs veh, ABCC4 / RFU, LOC101060439 /// RAP1B / Fold change vs veh, LOC101060439 /// RAP1B / RFU, RFX7 / Fold change vs veh, RFX7 / RFU, GTPBP10 / Fold change vs veh, GTPBP10 / RFU, CNEP1R1 / Fold change vs veh, CNEP1R1 / RFU, BIVM-ERCC5 /// ERCC5 / Fold change vs veh, BIVM-ERCC5 /// ERCC5 / RFU, ILF3 / Fold change vs veh, ILF3 / RFU 11762660_at / Fold change /veh 11762660_at / RFU VCAN (11757783_s_at) / Fold change /veh VCAN (11757783_s_at) / RFU DDX43 (11728927_at) / Fold change /veh DDX43 (11728927_at) / RFU KRT8 (11758188_x_at) / Fold change /veh KRT8 (11758188_x_at) / RFU NKD1 (11759106_at) / Fold change /veh NKD1 (11759106_at) / RFU SRD5A1 (11742802_a_at) / Fold change /veh SRD5A1 (11742802_a_at) / RFU TPSAB1 /// TPSB2 (11721975_s_at) / Fold change /veh TPSAB1 /// TPSB2 (11721975_s_at) / RFU GSTM3 (11746129_a_at) / Fold change /veh GSTM3 (11746129_a_at) / RFU IL23R (11737362_x_at) / Fold change /veh IL23R (11737362_x_at) / RFU TMEM51 (11727254_a_at) / Fold change /veh TMEM51 (11727254_a_at) / RFU PIWIL2 (11732686_x_at) / Fold change /veh PIWIL2 (11732686_x_at) / RFU ORM1 (11744905_x_at) / Fold change /veh ORM1 (11744905_x_at) / RFU CCDC152 (11743942_at) / Fold change /veh CCDC152 (11743942_at) / RFU ECM1 (11717891_a_at) / Fold change /veh ECM1 (11717891_a_at) / RFU IL23R (11748794_a_at) / Fold change /veh IL23R (11748794_a_at) / RFU TNFAIP8L3 (11732012_x_at) / Fold change /veh TNFAIP8L3 (11732012_x_at) / RFU MBOAT4 (11741988_at) / Fold change /veh MBOAT4 (11741988_at) / RFU 11764193_at / Fold change /veh 11764193_at / RFU TMEM53 (11763286_at) / Fold change /veh TMEM53 (11763286_at) / RFU MAGEB2 (11727129_at) / Fold change /veh MAGEB2 (11727129_at) / RFU TMEM200A (11744735_a_at) / Fold change /veh TMEM200A (11744735_a_at) / RFU CCDC152 (11751479_a_at) / Fold change /veh CCDC152 (11751479_a_at) / RFU FAM211A (11726209_a_at) / Fold change /veh FAM211A (11726209_a_at) / RFU RGS16 (11746705_a_at) / Fold change /veh RGS16 (11746705_a_at) / RFU VCAN (11755009_s_at) / Fold change /veh VCAN (11755009_s_at) / RFU RHOB (11743442_s_at) / Fold change /veh RHOB (11743442_s_at) / RFU RGS16 (11720943_a_at) / Fold change /veh RGS16 (11720943_a_at) / RFU RGS16 (11720944_at) / Fold change /veh RGS16 (11720944_at) / RFU, VPS4B / Fold change vs veh, VPS4B / RFU, CREB1 / Fold change vs veh, CREB1 / RFU, DNAJC13 / Fold change vs veh, DNAJC13 / RFU, GNAQ / Fold change vs veh, GNAQ / RFU, CDK5R1 / Fold change vs veh, CDK5R1 / RFU, ZRANB3 / Fold change vs veh, ZRANB3 / RFU, CUL4A / Fold change vs veh, CUL4A / RFU, CCNY / Fold change vs veh, CCNY / RFU, UFL1 / Fold change vs veh, UFL1 / RFU, COG3 / Fold change vs veh, COG3 / RFU, DIAPH2 / Fold change vs veh, DIAPH2 / RFU, SKA2 / Fold change vs veh, SKA2 / RFU, AFF3 / Fold change vs veh, AFF3 / RFU, LMF1 / Fold change vs veh, LMF1 / RFU, IPO11 / Fold change vs veh, IPO11 / RFU, DFFB / Fold change vs veh, DFFB / RFU, FOXP1 / Fold change vs veh, FOXP1 / RFU, CARD8 / Fold change vs veh, CARD8 / RFU, STRN3 / Fold change vs veh, STRN3 / RFU, ADK / Fold change vs veh, ADK / RFU, RASSF2 / Fold change vs veh, RASSF2 / RFU, WIPF1 / Fold change vs veh, WIPF1 / RFU, LARP1B / Fold change vs veh, LARP1B / RFU, RASA1 / Fold change vs veh, RASA1 / RFU, RB1 / Fold change vs veh, RB1 / RFU, PPFIA1 / Fold change vs veh, PPFIA1 / RFU, MAT2A / Fold change vs veh, MAT2A / RFU, CCT5 / Fold change vs veh, CCT5 / RFU, WDR92 / Fold change vs veh, WDR92 / RFU, CUX1 / Fold change vs veh, CUX1 / RFU, TTC7A / Fold change vs veh, TTC7A / RFU, TMEM135 / Fold change vs veh, TMEM135 / RFU, DEPTOR / Fold change vs veh, DEPTOR / RFU, CPM / Fold change vs veh, CPM / RFU, DNAJB6 / Fold change vs veh, DNAJB6 / RFU, CACNA2D3 / Fold change vs veh, CACNA2D3 / RFU, DTX4 / Fold change vs veh, DTX4 / RFU, TFCP2 / Fold change vs veh, TFCP2 / RFU, GMCL1 /// GMCL1P1 / Fold change vs veh, GMCL1 /// GMCL1P1 / RFU, AEBP2 / Fold change vs veh, AEBP2 / RFU, SNHG1 /// SNORD22 /// SNORD25 /// SNORD26 /// SNORD27 /// SNORD28 /// SNORD29 /// SNORD31 / Fold change vs veh, SNHG1 /// SNORD22 /// SNORD25 /// SNORD26 /// SNORD27 /// SNORD28 /// SNORD29 /// SNORD31 / Fold change (Aza/veh), C12orf56 (ProbeSet 11735607_a_at) / Fold change (ACY-1035/veh), C12orf56 (ProbeSet 11735607_a_at) / Fold change (Aza/veh), FGFR1OP (ProbeSet 11751329_s_at) / Fold change (ACY-1035/veh), FGFR1OP (ProbeSet 11751329_s_at) / Fold change (Aza/veh), VPS36 (ProbeSet 11739960_a_at) / Fold change (ACY-1035/veh), VPS36 (ProbeSet 11739960_a_at) / RFU SYPL1 (11715823_x_at) / Fold change /veh SYPL1 (11715823_x_at) / RFU IGFBP7 (11715501_s_at) / Fold change /veh IGFBP7 (11715501_s_at) / RFU REEP3 (11722064_at) / Fold change /veh REEP3 (11722064_at) / RFU IGLL1 (11728026_x_at) / Fold change /veh IGLL1 (11728026_x_at): dose or concentration left out as unconfirmed
Conditions: ProbeSet 11716891_at; LIST B

With `Nc1ccc(-c2cccs2)cc1NC(=O)c1ccc2c(c1)cc(C1CC1)n2CCN1CCOCC1` [ACY-1035] the “Fold change vs veh, C9orf123” value was 1.03.
